Key:
[1] = tested on: non-obese diabetic (NOD) mouse model of diabetes and Sjögren's Syndrome; experiment: NOD mouse model: histology of salivary and lacrimal glands and pancreas; format: in vivo; conditions: NOD mice, drinking water, 12 weeks, compared to control mice; for inflammation of the salivary and lacrimal glands (exocrine glands): corresponding to a human dose of about 10 g/day
Description: The anti-inflammatory effect of HMOs is investigated in the non-obese diabetic (NOD) mouse model of diabetes and Sjögren's Syndrome.
(§1) The mice are divided into four groups (n=8) with a control group receiving standard tap water, and the three treatment groups receiving supplementation with 2′-FL, mixture of 2′-FL and DFL (in a 4:1 ratio by weight), or 6′-SL in the drinking water, corresponding to a human daily dose of about 10 grams (calculated by metabolic rate and daily water consumption of NOD mice strains).
(§2) The mice receive the treatment for 12 weeks with bi-weekly water changes. From 12 weeks of age, the blood-glucose levels of the mice are checked weekly. Mice with blood-glucose levels above 7 mmol/l are closely monitored and euthanised (and excluded from the study) if their blood glucose levels increase to ≥12 mmol/l on two consecutive measurements.
(§3) After 12 weeks treatment the mice are euthanised, and the following are sampled; serum, pancreas, salivary glands, Haarderian lacrimal glands, extraorbital lacrimal glands, as well as caecum and colon content.
The salivary and lacrimal glands are analysed by measuring the total area of inflammatory foci in relation to the total gland size on eight (salivary glands) and two (lacrimal glands) haematoxylin and eosin-stained paraffin-embedded sections per mouse. The pancreas is similarly analysed using histological sections scoring a minimum of 25 (preferably 50) islets of Langerhans for the degree of insulitis with a score ranging from 0-3 (0=no insulitis, 1=peri-insulitis, 2=infiltratory insulitis compromising ≤50% of the islet, 3=infiltratory insulitis compromising ≥50% of the islet).

[2] = NOD mouse model: short chain fatty acids in caecum content and serum; format: in vivo; conditions: NOD mice, 12 weeks; for acetate concentration in serum: compared to control animals
Description: as §1, §2, §3
Caecum content and serum are used to measure the concentration of short chain fatty acids, namely acetate, propionate and butyrate. Faecal samples obtained at baseline together with colon content sampled after euthanasia are used for 16S rRNA genomic sequencing of the microbiota.

Row | Compound | insulitis of the pancreas [1] | inflammation of the salivary and lacrimal glands (exocrine glands) [1] | acetate concentration in caecum [2] | concentration of caecum butyrate [2] | acetate concentration in serum [2]
1 | CC(=O)N[C@H]1[C@H]([C@H](O)[C@H](O)CO)O[C@@](OC[C@H]2O[C@@H](O[C@H]3[C@H](O)[C@@H](O)[C@H](O)O[C@@H]3CO)[C@H](O)[C@@H](O)[C@H]2O)(C(=O)O)C[C@@H]1O [6′-SL, 6′-sialyllactose] | reduced | reduce | increase | increase | increase
2 | 2′-fucosyllactose [2′-FL] | reduced | reduce | – | – | increases

Source: patent publication US11554131B2, “Mixture of HMOs for treating autoimmune diseases” (Glycom A/S, priority 2018, dated 2023)
